Common to all, as to type: cell-based, human
The subject of one test is LNCaP-BRCA2-RB1 cells. The experiment in a line: qPCR of EMT transcription factors after androgen (R1881) treatment. The note with it: 1 nM R1881, 48 hours in CSS (FIG. 3I). How it is done: Scr-CRISPR and BRCA2-CRISPR2 cells were also transfected with non-targeting shRNA (scr-Sh) for control of shRNA. GAPDH served as the loading control. […] Nuclei were stained with DAPI (blue). […] Control cells were transfected with empty vector. […] GAPDH served as the loading control. […] LNCaP cells were used as control. GAPDH served as the loading control. […] Nuclei were stained with DAPI (blue). […] Equivalent volume of DMSO was used as placebo treatment. Cell growth was measured by MTT assay; SD, P-values determined by Student's t-test. […] LNCaP-BRCA2-RB1 or control cells were incubated in charcoal-stripped medium (CSS) for 24 hours followed by treatment with 1 nM R1881 for another 48 hours (in CSS). […] Expression of the indicated genes normalized with untreated control and GAPDH. […] Scrambled-SMARTpool siRNA transfected LNCaP cells were used as control. 2.5×10^3 indicated cells (72 hours after indicated siRNA transfection) were plated on the top of Boyden chamber in serum-free media; 10% serum in the bottom chamber was used as chemo-attractant. After 24 hours, cells in the lower side of the chamber were fixed, stained, photographed in 100× magnification (top panel), and counted and represented in the form of the bar graph (bottom panel). P-values were determined by Student's t-test.
RNA Extraction and qPCR. […] All quantifications were normalized to endogenous GAPDH.
On the technique in general: Real-time PCR tracks product formation cycle by cycle.

In another test the test system is 22RV1 cells. The test is described as follows: MTT cell growth with PARPi or cisplatin. The note with it: 22RV1, BRCA2 T3033Nfs*11, RB1-wt; cisplatin 500 nM, talazoparib 5 nM, 6 days (FIG. 11D). How it is done:
The ploidy of each cell line is indicated. […] Equivalent volume of DMSO was used as placebo treatment. Cell growth was measured by MTT assay (see Example 1); SD, each point indicates the MTT count of each well of 96-well plate, P-values determined by Student's t-test. **P<0.01, ****P<0.0001. […] Cell Proliferation Assay by MTT, BrdU and Crystal Violet. For MTT assay, cells were plated at 2.5×10^3 per well in 96-well plates in complete media (10% FBS) or media supplemented with 10% charcoal-stripped serum. Cells were either treated with DMSO or with indicated inhibitors. After indicated times, cells were incubated in 0.5 mg/mL MTT (Invitrogen) for 1 hour at 37° C. MTT crystals were dissolved in isopropanol and absorbance was measured in a BioTek plate reader at […] and represented graphically.

For another test, the system named is BRCA2-null LNCaP cells. The experiment in a line: MTT cell growth of BRCA2 CRISPR-edited LNCaP cells with PARP inhibitors or cisplatin. The note with it: BRCA2 knockout LNCaP vs control gRNA (scr) cells; complete medium, 6 days (FIG. 7C). How it is done:
Cells infected with scrambled (scr) gRNA were used as control. Equal amount of proteins was loaded in WedgeWell 6% gel and western blot was performed. ˜400 kDa BRCA2 band is indicated by arrow. GAPDH served as loading controls for western blot and qPCR. […] Genotypes are detected by PCR amplification followed by being treated with T7 endonuclease. Wt and mutant BRCA2 are indicated by red and green arrows, respectively. […] Equivalent volume of DMSO was used as placebo treatment. Cell growth was measured by MTT assay (see Example 1); SD, P-values determined by Student's t-test. *P<0.05, **P<0.01, ***P<0.001. FIGS. 7D-7E show the growth curve (FIG. 7D) and a bar graph (FIG. 7E) representing the cell growth of LNCaP BRCA2 CRISPR-edited and non-targeting control gRNA (scr) infected cells in complete medium supplemented with enzalutamide (ENZ; indicated concentration) for 7 days or charcoal-stripped medium (CSS) for 5 days, respectively. Equivalent volume of DMSO was used as placebo treatment. Cell growth was measured by crystal violet staining assay (see Example 1) (±SD); P-values determined by Student's t-test. […] Equivalent volume of DMSO was used as placebo treatment. Cell growth was measured by MTT assay (see Example 1) (±SD); P-values determined by Student's t-test. […] Total RNA was isolated, and BRCA2 mRNA was analyzed by qPCR. […] Cell growth was measured by MTT assay; SD, P-values determined by Student's t-test.
To generate BRCA2 knockout RWPE1 cells, BRCA2 gRNA2 was cloned into LentiCRISPRv2-GFP backbone which constitutively expresses Cas9 and GFP. Lentiviral infected cells were selected by FACS sorting for GFP positive cells (twice) and analyzed by western blot. […] Loss of BRCA2 in the pooled populations of LNCaP cells was analyzed by western blot using BRCA2-specific antibodies and this pooled population of cells was used for the following experiments. […]
Cell Proliferation Assay by MTT, BrdU and Crystal Violet. […] MTT crystals were dissolved in isopropanol and absorbance was measured in a BioTek plate reader at […] and represented graphically.

As for `C[C@]1(O)CC[C@H]2[C@@H]3CCC4=CC(=O)CCC4=C3C=C[C@@]21C` [R1881], in the test with LNCaP-BRCA2-RB1 cells, the “SLUG mRNA (qPCR)” value is reported as “significantly increased”.
`N.N.[Cl][Pt][Cl]` [cisplatin]: the figures for the “sensitivity (cell growth, MTT)” value in the test with 22RV1 cells and in the test on BRCA2-null LNCaP cells were “sensitivity” and “enhanced sensitivity”, respectively.

(Values after patent US20240150839A1, “METHODS FOR PREDICTING RESPONSIVENESS OF PROSTATE CANCER PATIENTS TO PARP INHIBITORS” (Memorial Sloan Kettering Cancer Center, priority 2019, published 2024).)
